# Results: patent US10993933B2, “Oral dosage forms of bendamustine” (ASTELLAS DEUTSCHLAND GMBH, priority 2010, dated 2021)
# Where a name gives a salt, the structure may show the parent alone.
# Tests used:
# [1] = cited from earlier work
# [2] = Solubility of bendamustine hydrochloride in water and organic solvents; assay type: physicochemical
# Source text: Therefore it is not surprising that the oral bendamustine compositions, as investigated by Preiss et al. and Weber gave rise to relatively poor bioavailability results and a large inter-individual variability.
# [3] = B6D2F1-mice, absorption from the gastro-intestinal tract; cited from earlier work
# [4] = Bendamustine hydrochloride solubility in carriers (HPLC of supernatant); assay type: physicochemical
# Procedure: Due to the necessity to determine if part of the bendamustine hydrochloride added to the vehicle is dissolved, in order to verify a possible degradation, an analytical procedure, from sample preparation to its analysis, was developed.
# Essentially, it consisted in the preparation of a supersaturated solution of bendamustine hydrochloride in the oil: the minimum amount of bendamustine hydrochloride suitable to generate sedimentation of solid particle on the bottom of the vessel was added to the oil warmed at 40° C.; this solution was electromagnetically stirred for several days (about 4) at room temperature and then centrifuged at 3000 rpm for 15 minutes. The supernatant was analysed by HPLC versus a solution of bendamustine hydrochloride working standard (0,551 mg/ml).
# Essentially, it consisted in the preparation of a supersaturated solution of bendamustine hydrochloride in the vehicle: the minimum amount of bendamustine hydrochloride suitable to generate sedimentation of solid particle on the bottom of the vessel was added to the oil heated to about 5° C. above its melting point; this solution was kept in static condition at this temperature overnight, to allow sedimentation on the bottom. The supernatant was analysed by HPLC versus a solution of API working standard (0.551 mg/ml).
# In table 21.a below, the results of the analysis are reported expressed as mg of bendamustine hydrochloride completely dissolved in about 1 g of solution of the carrier selected.
# Further samples for the solubility evaluation were prepared by adding, under stirring, a quantity of active ingredient (API) suitable to generate a phase segregation to a determined amount of each carrier. The samples were prepared at a temperature slightly above the melting point of each carrier (except for liquid vehicles) and kept at this temperature for about 5 hrs (estimated manufacturing process time). Where applicable, each sample was centrifuged to accelerate phase segregation; an amount of the supernatant, corresponding to the filling weight of a capsule (about 600 mg), was withdrawn and evaluated for assay to determine the amount of API actually dissolved.
# Each solubility value is related to a specific temperature, corresponding to the value set for the filling into capsules (see table 14).
# [5] = carrier CREMOPHOR A6 (Semisolid at room temperature), suspension weight 1015.3 mg
# [6] = carrier CREMOPHOR A25 (Semisolid at room temperature), suspension weight 995.6 mg
# [7] = carrier CREMOPHOR EL (Liquid at room temperature), suspension weight 1026.8 mg
# [8] = carrier CREMOPHOR RH40 (Semisolid at room temperature), suspension weight 1000.4 mg
# [9] = carrier LABRAFAC PG (Liquid at room temperature), suspension weight 1961.5 mg
# [10] = carrier LABRAFIL M1944 CS (Liquid at room temperature), suspension weight 1011.7 mg
# [11] = carrier LABRAFIL M2125 (Liquid at room temperature), suspension weight 765.2 mg
# [12] = carrier LAUROGLYCOL 90 (Liquid at room temperature), suspension weight 993.9 mg
# [13] = carrier LAUROGLYCOL FCC (Liquid at room temperature), suspension weight 1934.8 mg
# [14] = carrier MIGLYOL 810 (Liquid at room temperature), suspension weight 602.8 mg
# [15] = carrier MIGLYOL 812 (Liquid at room temperature), suspension weight 1044.1 mg
# [16] = carrier MIGLYOL 829 (Liquid at room temperature), suspension weight 1865.0 mg
# [17] = carrier MIGLYOL 840 (Liquid at room temperature), suspension weight 599.9 mg
# [18] = carrier PLUROL oleique CC497 (Liquid at room temperature), suspension weight 1005.8 mg
# [19] = carrier PLURONIC L44 NF INH (Liquid at room temperature), suspension weight 1987.1 mg
# [20] = carrier SOFTIGEN 701 (Liquid at room temperature), suspension weight 1079.0 mg
# [21] = carrier SOFTISAN 645 (Liquid at room temperature), suspension weight 1014.0 mg
# [22] = carrier TRANSCUTOL HP (Liquid at room temperature), suspension weight 1003.1 mg
smiles,measurement,setting,value
Cn1c(CCCC(=O)O)nc2cc(N(CCCl)CCCl)ccc21 [bendamustine hydrochloride],mean oral bioavailability,"[1]; 7 patients, oral capsules vs intravenous, 4.2-5.5 mg/kg",57%
same,time to maximal plasma levels after oral administration,"[1]; patients, oral capsules of 25 mg, 250-350 mg",≤ 1 h
same,solubility in a range of organic solvents,[2],slightly or very slightly soluble
same,solubility in ethanol and methanol,[2],good solubility
same,solubility in water,[2]; pH of 2.0,sparingly soluble
same,bioavailability,[3],about 40%
same,Solubility,"[4]; carrier BRIJ C2 (Semisolid), T 45 ° C.",0.004 mg API/mg Solution
same,Solubility,"[4]; carrier BRIJ L4 (Liquid), T 25 ° C.",0.008 mg API/mg Solution
same,Solubility,"[4]; carrier BRIJ L23 (Solid), T 45 ° C.",0.004 mg API/mg Solution
same,Solubility,"[4]; carrier BRIJ O10 (Semisolid), T 45 ° C.",0.007 mg API/mg Solution
same,Solubility,"[4]; carrier BRIJ O20 (Semisolid), T 45 ° C.",0.006 mg API/mg Solution
same,Solubility,"[4]; carrier BRIJ S10 (Solid), T 42 ° C.",0.003 mg API/mg Solution
same,Solubility,"[4]; carrier BRIJ S20 (Solid), T 50 ° C.",0.008 mg API/mg Solution
same,Solubility,"[4]; carrier BRIJ S721 (Solid), T 45 ° C.",0.004 mg API/mg Solution
same,% API,[4]; [5],0.00%
same,API recovered,[4]; [5],0.00 mg
same,% API,[4]; [6],0.21%
same,API recovered,[4]; [6],2.10 mg
same,% API,[4]; [7],0.5%
same,API recovered,[4]; [7],5.13 mg
same,% API,[4]; [8],0.77%
same,API recovered,[4]; [8],7.72 mg
same,Solubility,"[4]; carrier GELUCIRE 44/14 (Semisolid), T 45 ° C.",0.004 mg API/mg Solution
same,Solubility,"[4]; carrier GLYCEROX HE (Liquid), T 25 ° C.",0.005 mg API/mg Solution
same,% API,[4]; [9],0.001%
same,API recovered,[4]; [9],0.01 mg
same,% API,[4]; [10],0.04%
same,API recovered,[4]; [10],0.38 mg
same,% API,[4]; [11],0.02%
same,API recovered,[4]; [11],0.17 mg
same,% API,[4]; [12],0.06%
same,API recovered,[4]; [12],0.61 mg
same,% API,[4]; [13],0.02%
same,API recovered,[4]; [13],0.33 mg
same,% API,[4]; [14],0.01%
same,API recovered,[4]; [14],0.04 mg
same,% API,[4]; [15],0.003%
same,API recovered,[4]; [15],0.03 mg
same,% API,[4]; [16],0.001%
same,API recovered,[4]; [16],0.03 mg
same,% API,[4]; [17],0.01%
same,API recovered,[4]; [17],0.06 mg
same,Solubility,"[4]; carrier MIRJ S8 (Semisolid), T 42 ° C.",0.010 mg API/mg Solution
same,Solubility,"[4]; carrier MIRJ S40 (Solid), T 50 ° C.",0.005 mg API/mg Solution
same,Solubility,"[4]; carrier MIRJ S100 (Semisolid), T 50 ° C.",0.009 mg API/mg Solution
same,% API,[4]; [18],0.21%
same,API recovered,[4]; [18],2.12 mg
same,Solubility,"[4]; carrier PLURONIC 103 (Semisolid), T 45 ° C.",0.002 mg API/mg Solution
same,Solubility,"[4]; carrier PLURONIC F108 (Solid), T 70 ° C.",0.006 mg API/mg Solution
same,Solubility,"[4]; carrier PLURONIC L35 (Liquid), T 25 ° C.",0.000 mg API/mg Solution
same,Solubility,"[4]; carrier PLURONIC L43 (Liquid), T 25 ° C.",0.000 mg API/mg Solution
same,% API,[4]; [19],0.18%
same,API recovered,[4]; [19],3.64 mg
same,Solubility,"[4]; carrier PLURONIC L64 (Liquid), T 25 ° C.",0.000 mg API/mg Solution
same,Solubility,"[4]; carrier PLURONIC P85 (Semisolid), T 50 ° C.",0.002 mg API/mg Solution
same,Solubility,"[4]; carrier PLURONIC P105 (Semisolid), T 50 ° C.",0.002 mg API/mg Solution
same,% API,[4]; [20],0.29%
same,API recovered,[4]; [20],5.42 mg
same,% API,[4]; [21],0.16%
same,API recovered,[4]; [21],1.60 mg
same,Solubility,"[4]; carrier SOLUTOL HS15 (Semisolid), T 35 ° C.",0.007 mg API/mg Solution
same,Solubility,"[4]; carrier SPEZIOL TPGS (Semisolid), T 45 ° C.",0.002 mg API/mg Solution
same,% API,[4]; [22],1.00%
same,API recovered,[4]; [22],10.01 mg
same,Solubility,"[4]; carrier TWEEN 20 (Liquid), T 25 ° C.",0.008 mg API/mg Solution
same,Solubility,"[4]; carrier TWEEN 40 (Liquid), T 25 ° C.",0.007 mg API/mg Solution
same,Solubility,"[4]; carrier TWEEN 61 (Semisolid), T 45 ° C.",0.019 mg API/mg Solution
same,Solubility,"[4]; carrier TWEEN 65 (Liquid), T 45 ° C.",0.007 mg API/mg Solution
same,Solubility,"[4]; carrier TWEEN 81 (Liquid), T 25 ° C.",0.004 mg API/mg Solution
same,bendamustine hydrochloride recovered in a supersaturated solution in liquid or semisolid oily vehicles,[4]; selected carriers,< 1%
